14 molecules from ChEMBL document CHEMBL1131814, “Structure-activity relationship of N-methyl-N-aralkyl-peptidylamines as novel N-type calcium channel blockers” (Bioorg Med Chem Lett, 1999) can be followed below.

A word on the IC50: it is the midpoint of a concentration-inhibition curve.

The target of test [1] is Voltage-dependent N-type calcium channel subunit alpha-1B (Homo sapiens, UniProt Q00975). Briefly: Inhibition of N-type calcium channels in IMR-32 human neuroblastoma cells. Type of test: cell-based.
Voltage-dependent N-type calcium channel subunit alpha-1B, sequence (Q00975 whole entry): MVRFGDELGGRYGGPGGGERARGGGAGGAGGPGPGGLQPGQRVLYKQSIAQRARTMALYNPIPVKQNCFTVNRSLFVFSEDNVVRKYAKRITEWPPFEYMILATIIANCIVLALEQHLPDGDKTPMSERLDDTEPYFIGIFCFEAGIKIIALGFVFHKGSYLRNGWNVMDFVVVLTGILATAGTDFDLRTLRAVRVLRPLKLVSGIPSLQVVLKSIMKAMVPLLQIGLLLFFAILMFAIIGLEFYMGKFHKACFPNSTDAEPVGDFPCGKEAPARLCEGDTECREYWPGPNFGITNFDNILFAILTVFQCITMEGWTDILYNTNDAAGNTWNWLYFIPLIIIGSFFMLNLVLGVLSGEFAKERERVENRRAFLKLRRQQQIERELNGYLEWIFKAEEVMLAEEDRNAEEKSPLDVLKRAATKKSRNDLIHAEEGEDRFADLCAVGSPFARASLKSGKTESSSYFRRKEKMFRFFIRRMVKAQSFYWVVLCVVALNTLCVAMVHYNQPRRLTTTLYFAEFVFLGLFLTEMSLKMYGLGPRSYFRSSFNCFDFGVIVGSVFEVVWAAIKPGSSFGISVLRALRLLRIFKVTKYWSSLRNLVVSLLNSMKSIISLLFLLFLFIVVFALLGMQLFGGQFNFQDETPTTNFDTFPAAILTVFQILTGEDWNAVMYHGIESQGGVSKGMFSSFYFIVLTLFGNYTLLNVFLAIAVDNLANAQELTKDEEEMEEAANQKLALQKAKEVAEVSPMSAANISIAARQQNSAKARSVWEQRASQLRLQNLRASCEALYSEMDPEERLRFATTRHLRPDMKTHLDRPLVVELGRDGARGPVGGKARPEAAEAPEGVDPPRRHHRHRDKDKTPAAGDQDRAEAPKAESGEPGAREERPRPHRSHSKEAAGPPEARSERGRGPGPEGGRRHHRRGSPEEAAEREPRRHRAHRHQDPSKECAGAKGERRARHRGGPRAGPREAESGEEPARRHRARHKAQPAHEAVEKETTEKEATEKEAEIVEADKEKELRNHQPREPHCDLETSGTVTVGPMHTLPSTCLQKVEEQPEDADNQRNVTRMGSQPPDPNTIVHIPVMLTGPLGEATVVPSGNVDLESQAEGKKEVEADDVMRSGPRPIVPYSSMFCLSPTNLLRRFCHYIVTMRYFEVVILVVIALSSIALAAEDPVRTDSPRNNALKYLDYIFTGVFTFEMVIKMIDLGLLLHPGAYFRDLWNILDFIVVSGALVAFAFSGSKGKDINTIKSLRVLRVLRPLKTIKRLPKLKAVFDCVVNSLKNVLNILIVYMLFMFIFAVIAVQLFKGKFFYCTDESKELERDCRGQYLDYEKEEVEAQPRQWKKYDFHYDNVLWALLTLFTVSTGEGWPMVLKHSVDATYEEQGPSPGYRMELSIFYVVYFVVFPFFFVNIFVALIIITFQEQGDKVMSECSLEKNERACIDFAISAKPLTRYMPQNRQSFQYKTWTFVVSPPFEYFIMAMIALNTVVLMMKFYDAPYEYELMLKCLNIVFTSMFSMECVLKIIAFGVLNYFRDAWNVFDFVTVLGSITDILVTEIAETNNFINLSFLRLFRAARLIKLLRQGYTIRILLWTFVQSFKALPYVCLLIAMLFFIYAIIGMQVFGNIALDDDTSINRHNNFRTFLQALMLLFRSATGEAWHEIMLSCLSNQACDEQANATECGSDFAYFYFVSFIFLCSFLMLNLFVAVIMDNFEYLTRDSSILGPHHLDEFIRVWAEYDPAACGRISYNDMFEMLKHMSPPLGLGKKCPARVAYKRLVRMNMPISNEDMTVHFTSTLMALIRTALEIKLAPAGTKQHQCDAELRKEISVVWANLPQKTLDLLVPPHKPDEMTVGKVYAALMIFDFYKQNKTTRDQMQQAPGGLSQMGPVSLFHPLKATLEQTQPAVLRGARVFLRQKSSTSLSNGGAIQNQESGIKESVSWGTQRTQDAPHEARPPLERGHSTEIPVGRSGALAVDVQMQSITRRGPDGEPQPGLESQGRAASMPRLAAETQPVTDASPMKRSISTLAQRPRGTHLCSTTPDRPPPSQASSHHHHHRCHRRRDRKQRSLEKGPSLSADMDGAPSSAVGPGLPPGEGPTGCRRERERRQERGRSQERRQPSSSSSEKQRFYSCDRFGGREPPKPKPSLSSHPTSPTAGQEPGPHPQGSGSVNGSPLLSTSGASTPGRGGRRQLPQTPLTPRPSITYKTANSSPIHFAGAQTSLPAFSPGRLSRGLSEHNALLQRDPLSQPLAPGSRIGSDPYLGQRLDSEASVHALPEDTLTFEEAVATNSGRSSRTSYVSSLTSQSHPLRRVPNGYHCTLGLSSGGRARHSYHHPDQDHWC
Test [2] has as its system Mus musculus. Briefly: Percentage of protection from audiogenic tonic seizures in DBA/2 mice after intravenous administration at a dose of 30 mg/kg. Type of test: functional.
Test [3] deals with Mus musculus. The test can be described thus: Percentage of protection from audiogenic tonic seizures in DBA/2 mice after intravenous administration at a dose of 10 mg/kg. The test is classed as functional.

With `CC(C)C[C@@H](C(=O)N[C@@H](Cc1ccc(OC(=O)c2ccccc2)cc1)C(=O)NC(C)(C)C)N(C)Cc1ccco1`, the IC50 in test [1] amounted to 1600 nM. This molecule displayed a Protection with Mus musculus [2] of 60%. In the case of `CC(C)C[C@@H](C(=O)N[C@@H](Cc1ccc(OC(=O)c2ccccc2)cc1)C(=O)NC(C)(C)C)N(C)Cc1ccc(Cl)cc1`, the half-inhibitory concentration (IC50) in test [1] was determined as 230 nM.

With `CC(C)C[C@@H](C(=O)N[C@@H](Cc1ccc(OC(=O)c2ccccc2)cc1)C(=O)NC(C)(C)C)N(C)Cc1ccccc1`, in test [1], the IC50 came out at 360 nM. Take `CC(C)C[C@@H](C(=O)N[C@@H](Cc1ccc(OC(=O)c2ccccc2)cc1)C(=O)NC(C)(C)C)N(C)Cc1ccc(C(C)(C)C)cc1`: the IC50 in test [1] was 36 nM. This molecule also yielded a Protection in the test with Mus musculus [2] of 60%. In the case of `CC(C)C[C@@H](C(=O)N[C@@H](Cc1ccc(OC(=O)c2ccccc2)cc1)C(=O)NC(C)(C)C)N(C)Cc1ccc(O)cc1`, the concentration for half-maximal inhibition (IC50) in test [1] was 1000 nM. Consider `CC(C)C[C@@H](C(=O)N[C@@H](Cc1ccc(OC(=O)c2ccccc2)cc1)C(=O)NC(C)(C)C)N(C)Cc1cccnc1`, for which the IC50 in test [1] was determined as 1700 nM. Turning to `CC(C)C[C@@H](C(=O)N[C@@H](Cc1ccc(OC(=O)c2ccccc2)cc1)C(=O)NC(C)(C)C)N(C)CCc1ccccc1`, in test [1], the IC50 amounted to 1700 nM.

Turning to `COc1ccc(CN(C)[C@@H](CC(C)C)C(=O)N[C@@H](Cc2ccc(OC(=O)c3ccccc3)cc2)C(=O)NC(C)(C)C)cc1`, the IC50 in test [1] is 500 nM. For the same molecule, the figures for the Protection with Mus musculus [3] and in the test on Mus musculus [2] were 40% and 100%, respectively.

Regarding `CC(C)C[C@@H](C(=O)N[C@@H](Cc1ccc(OC(=O)c2ccccc2)cc1)C(=O)NC(C)(C)C)N(C)CC1CCCCC1`, the IC50 in test [1] stood at 680 nM. Further, the Protection was 20% in the test on Mus musculus [3] and 100% in the test with Mus musculus [2]. Consider `CC(C)C[C@@H](C(=O)N[C@@H](Cc1ccc(OC(=O)c2ccccc2)cc1)C(=O)NC(C)(C)C)N(C)Cc1ccc(Br)cc1`, for which the IC50 in test [1] was 130 nM.

`CC(C)C[C@@H](C(=O)N[C@@H](Cc1ccc(OC(=O)c2ccccc2)cc1)C(=O)NC(C)(C)C)N(C)CCCc1ccccc1`: in test [1], the IC50 was found to be 1900 nM.

As to `CC(C)C[C@@H](C(=O)N[C@@H](Cc1ccc(OC(=O)c2ccccc2)cc1)C(=O)NC(C)(C)C)N(C)Cc1ccccc1Cl`, in test [1], the IC50 came out at 560 nM. As for `CC(C)C[C@@H](C(=O)N[C@@H](Cc1ccc(OC(=O)c2ccccc2)cc1)C(=O)NC(C)(C)C)N(C)Cc1ccc(N(C)C)cc1`, in test [1], the concentration for half-maximal inhibition (IC50) was found to be 280 nM. In the test with Mus musculus [2], this molecule registered a Protection of 80%.

On to `CC(C)C[C@@H](C(=O)N[C@@H](Cc1ccc(OC(=O)c2ccccc2)cc1)C(=O)NC(C)(C)C)N(C)Cc1cccc(Cl)c1`, for which the IC50 in test [1] was 1000 nM.
